# From patent US5368864A, “Formulation of oxypurinol and/or its alkali and alkaline earth salts” (Henning Berlin GmbH Chemie- und Pharmawerk, priority 1988, dated 1994)
# How the values were obtained:
# [1] = Dissolution test (USP XXI dissolution tester) of oxypurinol sodium monohydrate and formulations in 0.1 N hydrochloric acid, spectrophotometric at 245 nm; format: physicochemical; conditions: for Dissolved amount of active substance (cumulated values): 0.1 N HCl, 37° C.
# Experimental: The dispersion of solids containing oxypurinol was mixed with the adjuvants indicated, and pressed to give tablets having a content of 150 mg of active substance. Two tablets, corresponding to 300 mg of oxypurinol sodium monohydrate, were tested for liberation of active substance.
# (§1) The forms according to the invention were tested for solubility and rate of dissolution, respectively, in comparison to crystalline oxypurinol sodium monohydrate finely powdered in a mortar.
# United States Pharmacopoeia (USP XXI)
# 0.1 N hydrochloric acid
# Measurements were effected spectrophotometrically at 245 nm.
# [2] = Solubility as a function of pH value and time as compared to crystalline active substance; format: physicochemical; conditions: solids dispersion is test 3; for solubility at 1 h: 60 minutes
# Experimental: as §1
# Solubility according to example 1 (test 3) as a function of pH value and
# as compared to crystalline active substance (values in mg/liter)
# [3] = Solubility and pH of aqueous solutions (background statements); format: physicochemical
# [4] = cited from earlier work
# [5] = associated with sparing solubility; cited from earlier work
smiles,measurement,setting,value
"O=c1[nH]c(=O)c2c[nH]nc2[nH]1 [oxypurinol sodium monohydrate, Oxypurinol sodium monohydrate]",solubility at 5 min,"[1]; 0.1 n hcl, after 5 minutes",43 µg/mL
same,solubility at 1 h,"[1]; 0.1 n hcl, after 60 minutes",142 µg/mL
same,solubility at 24 h,"[1]; 0.1 n hcl, after 24 hours, read-out: maximum solubility",~280 µg/mL
same,solubility at 48 h,"[1]; 0.1 n hcl, after another 24 hours, read-out: solubility as a constant for the substance",~260 µg/mL
same,Dissolved amount of active substance (cumulated values),[1]; 5 min,43 mg/L
same,Dissolved amount of active substance (cumulated values),[1]; 10 min,62 mg/L
same,Dissolved amount of active substance (cumulated values),[1]; 20 min,88 mg/L
same,Dissolved amount of active substance (cumulated values),[1]; 30 min,115 mg/L
same,Dissolved amount of active substance (cumulated values),[1]; 45 min,126 mg/L
same,Dissolved amount of active substance (cumulated values),[1]; 60 min,142 mg/L
same,Dissolved amount of active substance (cumulated values),[1]; 180 min,207 mg/L
same,Dissolved amount of active substance (cumulated values),[1]; 24 hrs,280 mg/L
same,Dissolved amount of active substance (cumulated values),[1]; 48 hrs,263 mg/L
same,rate of dissolution,[1]; measurement time of 5 minutes,about 43 mg/5 min
same,solubility at 5 min,[2]; pH = 1.5,43 µg/mL
same,solubility at 10 min,[2]; pH = 1.5,62 µg/mL
same,solubility at 5 min,[2]; pH = 3.0,81 µg/mL
same,solubility at 10 min,[2]; pH = 3.0,110 µg/mL
same,solubility at 1 h,[2]; pH = 3.0,222 µg/mL
same,solubility at 5 min,[2]; pH = 4.5,85 µg/mL
same,solubility at 10 min,[2]; pH = 4.5,110 µg/mL
same,solubility at 1 h,[2]; pH = 4.5,243 µg/mL
same,solubility at 5 min,[2]; pH = 6.5,243 µg/mL
same,solubility at 10 min,[2]; pH = 6.5,261 µg/mL
same,solubility at 1 h,[2]; pH = 6.5,290 µg/mL
same,pH value of aqueous solutions,[3]; aqueous solution,9.5
same,solubility,"[3]; water, 25° C., read-out: concentration permitted in aqueous solutions",~15000 µg/mL
"O=c1[nH]c(=O)c2c[nH]nc2[nH]1 [Oxypurinol, 4,6-dihydroxypyrazolo[3,4-d]pyrimidine]",solubility in water and digestive juice,[4],sparingly soluble
same,absorbability,[5],insufficient absorbability
